Assays:
hERG potassium channel = hERG potassium channel (Homo sapiens, UniProt Q12809); test: Whole-cell patch-clamp (QPatch) of hERG current in HEK293 cells stably expressing hERG; type: cell-based
Method: In this study, a whole-cell patch-clamp technique was used to study the inhibitory effect of compounds on hERG potassium channels and to evaluate the risk of ventricular repolarization toxicity.
The HEK293 cell line stably expressing the hERG potassium channel cells was purchased from Creacell, Inc. (Cat. No. A-0320).
The HEK293 cell line that can stably express the hERG potassium channel, was cultured in DMEM medium containing 10% fetal bovine serum and 0.8 mg/mL G418 at 37° C. and 5% carbon dioxide.
Before the test, the cells were separated with TrypLET Express, centrifuged after adding medium to terminate digestion, resuspended the cell count, adjusted the cell density to 2-3×10^6 cells/mL, and then lightly mixed the cells on a room temperature equilibration shaker for 15-20 min.
Electrophysiological assays were performed using a fully automated patch-clamp QPatch 48 X (Sophion) device. The prepared cells were placed on a centrifuge on the Qpatch bench, the cells were washed using multiple centrifugation/suspension methods, and the cell culture medium was replaced with extracellular fluid. Remove an MTP-96 plate and place it in the location of the MTP source. Remove the QPlate chip and subsequently place the QPlate at the Qplate source location. The robotic arm scans the MTP-96 board and the QPlate chip barcode and grabs it to the measuring station. Draw the intracellular and external fluid from the liquid pool and add them to the intracellular fluid pool, cell and test cell pool of the QPlate chip, respectively. At the measuring station, all measuring sites on the QPlate undergo initial quality control. The quality control process includes aspirating the cell suspension from the cell vessel of the centrifuge and positioning the cells to the chip wells via a pressure controller to establish a high-resistance seal and create a whole-cell recording pattern.
The voltage stimulation protocol for whole-cell patch-clamp recording of whole-cell hERG potassium currents is as follows: the cell membrane voltage clamps at −80 mV when a whole-cell closure is formed. The clamping voltage is depolarized from −80 mV to −50 mV for 0.5 s (as a leakage current detection), then steps to 30 mV for 2.5 s, and then quickly recovers to −50 mV for 4 s to excite the tail current of the hERG channel. The data were collected repeatedly every 10 s to observe the effect of the drug on the hERG tail current. −50 mV stimulation at 0.5 s was used as the leakage current detection. The test data is collected by Qpatch and stored in the connected service station.
First, the current after the effect of each drug concentration and the blank control current are normalized 0, and then the inhibition rate corresponding to each drug concentration is calculated.
Calculate the mean and standard error for each concentration and calculate the semi-inhibitory concentration for each compound using the following Formula:
Y=Bottom+(Top−Bottom)/(1+10^((LogIC50−X)*HillSlope)) The above Formula was used to fit the dose-dependent effect nonlinearly, where C represents the test substance concentration, IC50 is the semi-inhibitory concentration, and h represents the Hill coefficient. Curve fitting and IC50 calculations were performed using Graphpad software.

NLRP3 = biological target: T1, NLRP3 (Homo sapiens, UniProt Q96P20); test: IL-1β (interleukin-1β) secretion in IFN-γ-differentiated, LPS/ATP-stimulated THP-1 cells (half inhibition rate of NLRP3); type: cell-based; conditions: IFN-γ 25 ng/mL, LPS 50 ng/mL, ATP 5 mM
T1 construct: endogenous in cells; host or cells: THP-1 cells (IFN-γ differentiated, LPS primed, ATP stimulated)
T1 sequence (Q96P20 whole entry): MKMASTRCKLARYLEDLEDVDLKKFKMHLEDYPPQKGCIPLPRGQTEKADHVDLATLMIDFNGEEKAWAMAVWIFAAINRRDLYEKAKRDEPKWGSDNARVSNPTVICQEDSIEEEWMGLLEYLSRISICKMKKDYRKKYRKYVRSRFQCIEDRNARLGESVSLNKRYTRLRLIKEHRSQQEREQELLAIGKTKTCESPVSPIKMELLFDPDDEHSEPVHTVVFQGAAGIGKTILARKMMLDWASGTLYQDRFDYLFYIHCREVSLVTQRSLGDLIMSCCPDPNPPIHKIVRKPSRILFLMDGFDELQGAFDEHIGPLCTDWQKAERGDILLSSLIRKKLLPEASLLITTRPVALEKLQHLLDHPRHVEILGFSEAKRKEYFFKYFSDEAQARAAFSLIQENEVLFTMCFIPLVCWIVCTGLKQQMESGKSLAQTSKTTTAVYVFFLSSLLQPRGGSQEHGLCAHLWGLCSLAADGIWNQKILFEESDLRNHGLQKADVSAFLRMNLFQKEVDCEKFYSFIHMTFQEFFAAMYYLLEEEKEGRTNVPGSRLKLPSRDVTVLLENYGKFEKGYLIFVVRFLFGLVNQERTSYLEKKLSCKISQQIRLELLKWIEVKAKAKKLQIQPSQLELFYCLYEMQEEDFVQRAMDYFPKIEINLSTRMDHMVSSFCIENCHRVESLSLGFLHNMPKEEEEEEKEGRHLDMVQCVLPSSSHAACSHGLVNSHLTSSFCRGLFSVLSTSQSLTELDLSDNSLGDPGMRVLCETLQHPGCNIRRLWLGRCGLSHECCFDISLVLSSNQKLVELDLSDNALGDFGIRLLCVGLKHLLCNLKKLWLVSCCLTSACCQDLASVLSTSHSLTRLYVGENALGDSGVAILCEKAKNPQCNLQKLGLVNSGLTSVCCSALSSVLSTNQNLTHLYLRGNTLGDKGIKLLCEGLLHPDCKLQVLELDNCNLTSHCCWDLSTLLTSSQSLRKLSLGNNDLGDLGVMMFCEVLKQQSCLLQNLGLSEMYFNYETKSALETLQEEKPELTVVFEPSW
Method: Remove THP-1 cells from liquid nitrogen and place in a 37° C. water bath until ice melt. Add the cells to 5 mL of warm cell culture medium and centrifuge at 1,000 rpm for 5 min. Discard the supernatant and resuspend and culture in a new cell culture medium.
THP-1 cells are cultured in the culture medium and passaged every 2-3 days.
2.1.1 Add 100 μL of cell suspension per well to the cell plate and incubate the cell plate in a 37° C., 5% CO2 incubator for 24 hours.
2.2.1 Discard the supernatant of IFN-γ differentiation after differentiation treatment. Add 100 μL of serum-free medium containing LPS (final concentration of 50 ng/mL) to the cell plate. The cell plates were incubated in a 37° C., 5% CO2 incubator for 4 h.
Place the cell plate in an incubator at 37° C. and 5% CO2 for 1 hour.
2.2.3 Add 20 μL of 6×ATP per well according to the plate map (final concentration 5 mM) and incubate the cell plate in a 37° C., 5% CO2 incubator for 1 h. Collect the supernatant (60 μL) and store at −20° C.
The capture antibody mAb Mt175 is diluted to 2 μg/mL with PBS (1:250) and added to the cell plate at 15 μL per well. Keep the plate overnight at 4° C.
2.4.1 Discard the coated antibody and wash 4 times with PBST.
2.4.3 Discard the blocking buffer and wash 4 times with PBST.
2.4.4 Add 25 μL of 2.2.3 collected supernatant sample per well and incubate for 2 h at room temperature.
2.4.5 Discard the samples and wash 4 times with PBST.
2.4.6 Add mAb7P10-biotin (concentration 0.5 ug/mL) to blocking buffer, add 15 μL per well to the cell plate, and incubate for 1 hour at room temperature.
2.4.7 Discard the antibody and wash 4 times with PBST.
2.4.8 Streptavidin-HRP was diluted 1:1000 in blocking buffer, 15 μL per well was added to the cell plate, and incubated for 1 hour at room temperature.
2.4.9 Discard streptavidin-HRP and wash 4 times with PBST.
2.4.10 Add 25 μL of HRP substrate (Surmodics-TMBW-0100-01) per well and incubate the cell plate until a blue product appears.
2.4.11 Add 25 μL of stop solution (Surmodics-LSTP-0100-01) per well, and the blue product turns yellow.
2.4.12 Read the cell plate at 450 nm with a microplate reader.

hERG potassium channel, sequence (Q12809 whole entry): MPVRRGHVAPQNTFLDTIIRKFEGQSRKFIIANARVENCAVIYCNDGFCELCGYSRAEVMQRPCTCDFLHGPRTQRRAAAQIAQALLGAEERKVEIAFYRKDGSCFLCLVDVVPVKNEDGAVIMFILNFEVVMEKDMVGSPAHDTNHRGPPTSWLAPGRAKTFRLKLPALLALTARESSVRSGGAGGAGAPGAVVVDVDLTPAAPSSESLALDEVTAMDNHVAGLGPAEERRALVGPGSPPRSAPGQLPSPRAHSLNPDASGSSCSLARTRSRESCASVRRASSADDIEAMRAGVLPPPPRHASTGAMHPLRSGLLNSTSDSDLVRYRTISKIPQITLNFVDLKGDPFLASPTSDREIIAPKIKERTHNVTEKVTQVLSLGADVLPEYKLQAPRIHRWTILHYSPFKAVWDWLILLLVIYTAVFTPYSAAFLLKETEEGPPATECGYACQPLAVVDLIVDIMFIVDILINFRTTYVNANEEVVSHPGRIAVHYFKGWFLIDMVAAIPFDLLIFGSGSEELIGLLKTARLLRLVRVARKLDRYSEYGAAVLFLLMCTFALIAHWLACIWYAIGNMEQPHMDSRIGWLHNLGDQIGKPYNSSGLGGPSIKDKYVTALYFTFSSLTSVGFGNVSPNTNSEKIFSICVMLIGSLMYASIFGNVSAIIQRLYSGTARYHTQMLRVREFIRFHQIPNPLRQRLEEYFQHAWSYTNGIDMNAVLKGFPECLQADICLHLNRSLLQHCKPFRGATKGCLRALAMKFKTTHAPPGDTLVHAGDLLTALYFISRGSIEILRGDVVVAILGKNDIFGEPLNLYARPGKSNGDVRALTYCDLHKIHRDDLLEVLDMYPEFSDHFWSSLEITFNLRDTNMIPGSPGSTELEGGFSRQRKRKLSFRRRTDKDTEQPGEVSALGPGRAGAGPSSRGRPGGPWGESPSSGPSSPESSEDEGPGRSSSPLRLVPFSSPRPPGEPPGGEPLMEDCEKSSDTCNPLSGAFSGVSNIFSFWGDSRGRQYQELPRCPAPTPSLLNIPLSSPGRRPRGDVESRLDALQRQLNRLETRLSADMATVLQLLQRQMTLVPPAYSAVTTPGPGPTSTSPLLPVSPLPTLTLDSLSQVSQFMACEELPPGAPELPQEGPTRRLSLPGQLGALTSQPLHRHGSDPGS

| IC50 (NLRP3) | Structure (SMILES) | IC50 (hERG potassium channel) |
| --- | --- | --- |
| – | Cc1cc(N[C@@H]2CCCN(C)C2)nnc1-c1ccc(C(F)(F)F)cc1O [Comparison 3] | < 10000 nM |
| 40.2 nM | Cc1cc(C)c(-c2cnc(N[C@@H]3CCCN(CCO)C3)nn2)c(O)c1 [Embodiment 2, (R)-2-(3-((1-(2-hydroxyethyl)piperidin-3-yl)amino)-1,2,4-triazin-6-yl)-3,5-dimethylphenol] | > 30000 nM |
| 7.4 nM | Cc1cc(C)c(-c2cnc(N[C@@H]3CCCN(C4CC4)C3)nn2)c(O)c1 [Embodiment 6, (R)-2-(3-((1-cyclopropylpiperidin-3-yl)amino)-1,2,4-triazin-6-yl)-3,5-dimethylphenol] | > 30000 nM |
| 12.4 nM | Cc1cc(Cl)cc(O)c1-c1cnc(N[C@@H]2CCCC[C@H]2O)nn1 [Embodiment 35, 5-Chloro-2-(3-(((1R,2R)-2-hydroxycyclohexyl)amino)-1,2,4-triazin-6-yl)-3-methylphenol] | > 30000 nM |
| 27.3 nM | Cc1nc(N[C@H]2C[C@@](C)(O)C2)nnc1-c1ccc(C(F)(F)F)cc1O [Embodiment 37, 2-(3-(((cis)-3-hydroxy-3-methylcyclobutyl)amino)-5-methyl-1,2,4-triazin-6-yl)-5-(trifluoromethyl)phenol] | > 30000 nM |
| – | Cc1cc(C(F)(F)F)cc(O)c1-c1cnc(N[C@@H]2CCC[C@@H](O)C2)nn1 [Embodiment 39] | > 30000 nM |
| 12.4 nM | Cc1cc(C(F)(F)F)cc(O)c1-c1cnc(N[C@H]2C[C@@](C)(O)C2)nn1 [Embodiment 40, 2-(3-(((cis)-3-hydroxy-3-methylcyclobutyl)amino)-1,2,4-triazin-6-yl)-3-methyl-5-(trifluoromethyl)phenol] | > 30000 nM |
| 6.5 nM | Cc1nc(N[C@@H]2CCCN(C(C)CO)C2)nnc1-c1ccc(C(F)(F)F)cc1O (stereo partly drawn) [Embodiment 43, 2-(3-(((3R)-1-(1-hydroxypropyl-2-yl)piperidin-3-yl)amino)-5-methyl-1,2,4-triazin-6-yl)-5-(trifluoromethyl)phenol] | > 30000 nM |
| 4.6 nM | Cc1cc(C(F)(F)F)cc(O)c1-c1cnc(N[C@@H]2CCCN(C(C)CO)C2)nn1 (stereo partly drawn) [Embodiment 47, 2-(3-(((3R)-1-(1-hydroxypropyl-2-yl)piperidin-3-yl)amino)-1,2,4-triazin-6-yl)-3-methyl-5-(trifluoromethyl)phenol] | > 30000 nM |
| 9.1 nM | Cc1cc(C(F)(F)F)cc(O)c1-c1cnc(N[C@@H]2CCCN(CCO)C2)nn1 [Embodiment 48, (R)-2-(3-((1-(2-hydroxyethyl)piperidin-3-yl)amino)-1,2,4-triazin-6-yl)-3-methyl-5-(trifluoromethyl)phenol] | > 30000 nM |
| 34.8 nM | Oc1cc(C(F)(F)F)ccc1-c1nnc(N[C@@H]2CCCC[C@H]2O)c2c1CCC2 [Embodiment 81, 2-(4-(((1R,2R)-2-hydroxycyclohexyl)amino)-6,7-dihydro-5H-cyclopenta[d]pyridazin-1-yl)-5-(trifluoromethyl)phenol] | – |
| 47.4 nM | C[C@]1(O)C[C@@H](Nc2nnc(-c3ccc(C(F)(F)F)cc3O)c3c2CCC3)C1 [Embodiment 82, 2-(4-(((cis)-3-hydroxy-3-methylcyclobutyl)amino)-6,7-dihydro-5H-cyclopenta[d]pyridazin-1-yl)-5-(trifluoromethyl)phenol] | – |
| 29.2 nM | CN1CCC[C@@H](Nc2ncc(-c3c(O)cc(C(F)(F)F)cc3Cl)nn2)C1 [Embodiment 107] | – |
| 10.9 nM | Cc1cc(C)c(-c2cnc(N[C@@H]3CCCN(C)C3)nn2)c(O)c1 [Embodiment 108] | – |
| 40.6 nM | CN1CCC[C@@H](Nc2nnc(-c3ccc(C(F)(F)F)cc3O)c3cocc23)C1 [Embodiment 109] | – |
| 2 nM | CN1CCC[C@@H](Nc2nnc(-c3ccc(C(F)(F)F)cc3O)c3c2C(F)(F)CC3)C1 [Embodiment 112] | – |
| 16.1 nM | CN1CCC[C@@H](Nc2nnc(-c3ccc(C(F)(F)F)cc3O)c3ccn(C)c23)C1 [Embodiment 113] | – |
| 31 nM | CN1CCC[C@@H](Nc2nnc(-c3ccc(C(F)(F)F)cc3O)c3c2ccn3C)C1 [Embodiment 114] | – |
| 10.6 nM | Cc1cc(Cl)cc(O)c1-c1nnc(N[C@@H]2CCCN(C)C2)c2ccccc12 [Embodiment 116] | – |

| IC50 (NLRP3) | Structure (SMILES) | IC50 (hERG potassium channel) |
| --- | --- | --- |
| 2.9 nM | COc1ccc2c(-c3ccc(C(F)(F)F)cc3O)nnc(N[C@@H]3CCCN(C)C3)c2c1 [Embodiment 118] | – |
| 5 nM | CN1CCC[C@@H](Nc2nnc(-c3ccc(C(F)(F)F)cc3O)c3cccc(F)c23)C1 [Embodiment 119] | – |
| 4.1 nM | CN1CCC[C@@H](Nc2nnc(-c3ccc(C(F)(F)F)cc3O)c3ccc(F)cc23)C1 [Embodiment 120] | – |
| 1.2 nM | CN1CCC[C@@H](Nc2nnc(-c3ccc(C(F)(F)F)cc3O)c3cc(F)ccc23)C1 [Embodiment 121] | – |
| 2.9 nM | CN1CCC[C@@H](Nc2nnc(-c3ccc(C(F)(F)F)cc3O)c3c(F)cccc23)C1 [Embodiment 122] | – |
| 5.47 nM | CN1CCC[C@@H](Nc2nnc(-c3ccc(Cl)cc3O)c3cccnc23)C1 [Embodiment 123] | – |
| 20.6 nM | CN1CCC[C@@H](Nc2nnc(-c3ccc(Cl)cc3O)c3ncccc23)C1 [Embodiment 124] | – |
| 9.9 nM | Cc1cc(Cl)cc(O)c1-c1nnc(N[C@@H]2CCCN(C)C2)c2ncccc12 [Embodiment 125] | – |
| 3 nM | CN1CCC[C@@H](Nc2nnc(-c3ccc(Cl)cc3O)c3ccncc23)C1 [Embodiment 128] | – |
| 3.8 nM | CN1CCC[C@@H](Nc2nnc(-c3ccc(Cl)cc3O)c3cnccc23)C1 [Embodiment 129] | – |
| 14 nM | Cc1nc(N[C@@H]2CCCN(CC3(O)CC3)C2)nnc1-c1ccc(C(F)(F)F)cc1O [Embodiment 134] | – |
| 4.7 nM | C[C@]1(O)C[C@@H](Nc2nnc(-c3ccc(C(F)(F)F)cc3O)c3cc(F)ccc23)C1 [Embodiment 138] | – |
| 9.5 nM | Oc1cc(C(F)(F)F)cc(F)c1-c1nnc(N[C@@H]2CCCC[C@H]2O)c2ncccc12 [Embodiment 140] | – |
| 1.5 nM | Cc1nc(N[C@@H]2CCCN(C3CC3)C2)nnc1-c1ccc(C(F)(F)F)cc1O [Embodiment 141] | – |
| 11.3 nM | Cc1nc(N[C@@H]2CCCN(C3CCC3)C2)nnc1-c1ccc(C(F)(F)F)cc1O [Embodiment 142] | – |
| 0.9 nM | CCN1CCC[C@@H](Nc2nnc(-c3ccc(C(F)(F)F)cc3O)c(C)n2)C1 [Embodiment 143] | – |
| 1.8 nM | Cc1nc(N[C@@H]2CCCN(C(C)C)C2)nnc1-c1ccc(C(F)(F)F)cc1O [Embodiment 144] | – |
| 7.4 nM | Cc1nc(N[C@@H]2CCCN(CC3CC3)C2)nnc1-c1ccc(C(F)(F)F)cc1O [Embodiment 146] | – |
| 3.2 nM | OCCN1CCC[C@@H](Nc2nnc(-c3ccc(Cl)cc3O)c3cc(F)ccc23)C1 [Embodiment 154] | – |
